Reference: patent US20140234365A1, “2-HYDROXYHIPPURIC ACID ANALOGS, AND METHODS FOR THEIR SYNTHESIS AND USE” (ALERE SAN DIEGO, INC., priority 2011, published 2014)

Tested on: anti-2-Hydroxyhippuric acid antibody
Assay: Competitive immunoassay for detecting 2-hydroxyhippuric acid (microfluidic device, fluorescent latex particle conjugate)
Assay type: binding
Conditions: analyte diluted into pools of human plasma, fluorescence read in TRIAGE meter after >15 minutes
From the text: A competitive assay for detecting 2-hydroxyhippuric acid in […] was developed using microfluidic devices manufactured at Alere San Diego, Inc. essentially as described in WO98/43739, WO98/08606, WO98/21563, and WO93/24231. An anti-2-Hydroxyhippuric acid antibody was developed by phage display using a hapten-KLH conjugate as immunogen. This antibody was conjugated to a 0.13 μm maleimide-functionalized latex particle via a free cysteine residue on the antibody. The detection reagent consisted of a 0.50 μm fluorescence energy transfer latex particle (essentially as described in U.S. Pat. Nos. 5,763,189, 6,238,931, and 6,251,687; and International Publication WO95/08772) made according to Example 6. […] (comprising 0.22% solids) of the antibody-particle conjugate was spotted onto the diagnostic lane of the microfluidic device, and 170 nL (comprising 0.4% solids) of the 2-Hydroxyhippuric acid-particle conjugate was applied to the device reaction chamber. Analytes were dissolved in deionized water, then diluted into pools of human plasma to achieve the desired final concentration. 210 μL of sample was applied to the device sample addition zone and allowed to run >15 minutes prior to reading the fluorescence in the TRIAGE (Biosite Incorporated) meter. A fluorescent signal was obtained by integrating the fluorescence as a function of distance from the device origin.

O=C(O)CNC(=O)c1ccccc1O [2-Hydroxyhippuric acid, 2-hydroxyhippuric acid]
concentration at which the assay detected the analyte: 10 µg/mL
